Data on 14 molecules can be found in PubChem BioAssay (NCI).

Several values for one entry are separate records, joined by “and”; a condition that tells them apart may be missing. Equal values may be shown once.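 Compound exposure: 48 hours, 5 concentrations, 96-well plates. GI50 marks 50% less growth. TGI: concentration producing complete growth inhibition.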

Test systems include SK-MEL-5 melanoma; HCT-116 colon; EKVX NSCLC; UACC-257 melanoma; K-562 leukemia; SF-268 CNS; HT29 colon; NCI-H460 lung; RPMI-8226 leukemia.
What all share (experiment): NCI tumour cell line growth inhibition, 48 h

For `N.N.N.N.[Cl-].[Co+3].[N-]=[N+]=[N-].[N-]=[N+]=[N-]`, the GI50 was above 100 µM with SK-MEL-5 melanoma; above 100 µM in the assay on HCT-116 colon; above 100 µM with EKVX NSCLC; above 100 µM in the assay on UACC-257 melanoma; above 100 µM with K-562 leukemia; 81.6 µM with SF-268 CNS. Also, the GI50 with HT29 colon, with NCI-H460 lung and in the assay with RPMI-8226 leukemia was above 100 µM in each case. Further, the TGI in the assay with SK-MEL-5 melanoma, in the assay on HCT-116 colon, in the assay on EKVX NSCLC, in the assay with UACC-257 melanoma, in the assay with K-562 leukemia and in the assay on SF-268 CNS was above 100 µM each time. The TGI in the assay with HT29 colon, in the assay with NCI-H460 lung and with RPMI-8226 leukemia was above 100 µM throughout.
For the molecule `COC(=O)OCC1OC(N2C(=O)NC(=O)C(Br)C2N=[N+]=[N-])CC1OC(=O)OC` (stereo not drawn), the TGI with SK-MEL-5 melanoma, in the assay with HCT-116 colon, in the assay with UACC-257 melanoma, in the assay on SF-268 CNS, in the assay with HT29 colon and in the assay on NCI-H460 lung was above 100 µM throughout. The same molecule came in with a TGI in the assay with RPMI-8226 leukemia above 100 µM.
Regarding `C[C@@]12CCCc3coc(c31)C(=O)c1cc3c(cc12)C(=O)C=CC3=O`, the GI50 with SK-MEL-5 melanoma, with UACC-257 melanoma, in the assay on K-562 leukemia, in the assay with HT29 colon, with NCI-H460 lung and with RPMI-8226 leukemia was above 1 µM in each case. Besides, the TGI in the assay with SK-MEL-5 melanoma was > 1 µM and 30.9 µM; in the assay on HCT-116 colon, above 1 µM; in the assay on EKVX NSCLC, 34.1 µM; with UACC-257 melanoma it was > 1 µM and 29.9 µM; in the assay with K-562 leukemia, > 1 µM and 78.2 µM; in the assay with SF-268 CNS it was above 1 µM. Besides, the TGI is > 1 µM and 44.9 µM in the assay on HT29 colon; > 1 µM and 41.3 µM with NCI-H460 lung; > 1 µM and 35 µM with RPMI-8226 leukemia.
`COc1ccc(-c2oc3cc(O)c(OC)c(O)c3c(=O)c2OC)cc1O`: the GI50 was 0.0786 µM in the assay on SK-MEL-5 melanoma; 0.0762 µM in the assay on HCT-116 colon; 3.43 µM with EKVX NSCLC; above 100 µM in the assay with UACC-257 melanoma; 0.0436 µM in the assay with K-562 leukemia; 0.0754 µM in the assay with SF-268 CNS. Also, the GI50 in the assay on HT29 colon is 3.5 µM; in the assay on NCI-H460 lung, 0.138 µM; in the assay on RPMI-8226 leukemia, 0.417 µM. In addition, the TGI with SK-MEL-5 melanoma is 2.67 µM; with HCT-116 colon it was 6.56 µM; with EKVX NSCLC, above 100 µM; in the assay on UACC-257 melanoma it was above 100 µM; with K-562 leukemia, above 100 µM; with SF-268 CNS, above 100 µM. Also, the TGI was above 100 µM in the assay with HT29 colon, 4.34 µM in the assay on NCI-H460 lung and above 100 µM in the assay with RPMI-8226 leukemia.
As to `COc1cc2ccc3c4cc(OC)c(OC(C)C)cc4cnc3c2cc1OC`, the TGI in the assay with SK-MEL-5 melanoma, in the assay on HCT-116 colon, in the assay with EKVX NSCLC, with UACC-257 melanoma, in the assay with K-562 leukemia and with SF-268 CNS was above 100 µM throughout. The TGI in the assay on HT29 colon, with NCI-H460 lung and with RPMI-8226 leukemia was above 100 µM throughout.
For the molecule `O=C1c2ccc3c4ccccc4n(Cc4ccccc4)c3c2C(=O)N1c1ccccc1`, the TGI came to 29.9 µM with SK-MEL-5 melanoma; 30 µM in the assay on HCT-116 colon; 39.4 µM with EKVX NSCLC; 29.9 µM with UACC-257 melanoma; 34.2 µM in the assay with K-562 leukemia; 40.8 µM in the assay with SF-268 CNS. The TGI with HT29 colon is 39.2 µM; in the assay with NCI-H460 lung it was above 100 µM; with RPMI-8226 leukemia, 40.1 µM.
In the case of `O=C(Nc1cc(Cl)ccc1Cl)C(=O)C(c1cnc2ccccc2n1)[N+](=O)[O-]` (stereo not drawn), the TGI in the assay on SK-MEL-5 melanoma, with HCT-116 colon, with EKVX NSCLC, in the assay on UACC-257 melanoma, in the assay on K-562 leukemia and in the assay on SF-268 CNS was above 100 µM each time. Further, the TGI with HT29 colon, in the assay with NCI-H460 lung and in the assay on RPMI-8226 leukemia was above 100 µM each time.
For the molecule `CCOC(=N)CC(=O)Nc1cccc(C)c1C`, the TGI in the assay on SK-MEL-5 melanoma, with HCT-116 colon, in the assay with EKVX NSCLC, with UACC-257 melanoma, in the assay on SF-268 CNS and with HT29 colon was above 100 µM in each case. Further, in the assay on NCI-H460 lung, the TGI is above 100 µM.
On to `Nc1ccn(C2(CO)C=C(CO)C(O)C2O)c(=O)n1` (stereo not drawn), for which the TGI with SK-MEL-5 melanoma, in the assay on HCT-116 colon, in the assay on EKVX NSCLC, with UACC-257 melanoma, in the assay with K-562 leukemia and in the assay with SF-268 CNS was above 25.8 µM in each case. Also, the TGI in the assay on NCI-H460 lung and with RPMI-8226 leukemia was above 25.8 µM each time.
As to `Cc1cc(NS(=O)(=O)c2ccc(Nc3c4ccccc4nc4c(C(=O)NCCN(C)C)cccc34)cc2)no1`, the TGI with SK-MEL-5 melanoma was 11.8 µM; in the assay with HCT-116 colon it was above 100 µM; in the assay on EKVX NSCLC, 30.1 µM; in the assay on K-562 leukemia it was above 100 µM; with SF-268 CNS, 16.4 µM; in the assay with HT29 colon, above 100 µM. Besides, the TGI in the assay with NCI-H460 lung stood at 26.6 µM.
Take `C=CCNC(=O)N(CCC)CCCCC(NC(C)=O)C(=O)NCc1ccccc1` (stereo not drawn): the TGI in the assay on SK-MEL-5 melanoma, with EKVX NSCLC, in the assay on UACC-257 melanoma, in the assay on K-562 leukemia, in the assay on SF-268 CNS and with HT29 colon was above 100 µM in each case. Also, the TGI in the assay on NCI-H460 lung and with RPMI-8226 leukemia was above 100 µM in each case.
`CN[C@@H](C)[C@H](NC)c1ccccc1`: the TGI in the assay on SK-MEL-5 melanoma, with HCT-116 colon, in the assay with EKVX NSCLC, in the assay with UACC-257 melanoma, with K-562 leukemia and in the assay on HT29 colon was above 100 µM in each case. In the assay with RPMI-8226 leukemia, this molecule had a TGI above 100 µM.
In the case of `COc1cc2cccc(N=Cc3cccc(OC)c3OC(C)C)c2cc1OC`, the TGI was 53.9 µM with SK-MEL-5 melanoma; above 100 µM with EKVX NSCLC; 52.4 µM with UACC-257 melanoma; 89 µM in the assay on K-562 leukemia; 91.4 µM with SF-268 CNS; 50.2 µM in the assay with HT29 colon. Besides, the results for the TGI in the assay on NCI-H460 lung and in the assay on RPMI-8226 leukemia were above 100 µM and 37.7 µM, respectively.
Take `CC(C)CCCC(C)[C@H]1CCC2[C@H]3C(CC[C@@]21C)[C@@]1(C)CCC=C[C@]12C[C@@H]2[C@@H]3O` (stereo partly drawn): the TGI with SK-MEL-5 melanoma, in the assay on HCT-116 colon, with EKVX NSCLC, in the assay on UACC-257 melanoma, with SF-268 CNS and with HT29 colon was above 100 µM throughout. In addition, the TGI in the assay on NCI-H460 lung and with RPMI-8226 leukemia was above 100 µM each time.
